The test system of data set [1] is Trichostrongylus colubriformis. The data set can be described thus: In-vivo test on Trichostrongylus colubriformis on Mongolian gerbils using peroral application. The settings on record: po, 72 h, worm count 3 days after treatment, read-out: Tc: efficacy, % reduction of the number of worms; for inhibition in vivo at 1 mg/kg: 1 mg/kg peroral; for inhibition in vivo at 10 mg/kg: 10 mg/kg peroral; for inhibition in vivo at 3.2 mg/kg: 3.2 mg/kg peroral. On the procedure:
(§1) 1. In-Vivo Test on Trichostrongylus colubriformis and Haemonchus contortus on Mongolian Gerbils (Meriones uncuiculatus) Using Peroral Application Six to eight week old Mongolian gerbils are infected through a stomach tube with ca. 2000 third instar larvae each of T. colubriformis and H. contortus. 6 days after infection, the gerbils are treated by peroral application with the test compounds, dissolved in a mixture of 2 parts DMSO and 1 part polyethylene glycol (PEG 400), in quantities of 100, 32 and 10-0.1 mg/kg. On day 9 (3 days after treatment), when most of the H. contortus that are still present are late 4th instar larvae and most of the T. colubriformis are immature adults, the gerbils are killed in order to count the worms. The efficacy is calculated as the % reduction of the number of worms in each gerbil, compared with the geometric average of number of worms from 6 infected and untreated gerbils. The following tables B1, B2 and B3 show a comparison of a series of the compounds of tables 1, 2 and 3 with structurally most closely related ones known from literature, proving the astounding efficacy increase in this test over the state of the art (Hc: Haemonchus contortus; Tc: Trichostrongylus colubriformis): […]

The next data set relates to Haemonchus contortus. The data set can be described thus: In-vivo test on Haemonchus contortus on Mongolian gerbils using peroral application. The settings on record: po, 72 h, worm count 3 days after treatment, read-out: Hc: efficacy, % reduction of the number of worms; for inhibition in vivo at 1 mg/kg: 1 mg/kg peroral; for inhibition in vivo at 10 mg/kg: 10 mg/kg peroral; for inhibition in vivo at 3.2 mg/kg: 3.2 mg/kg peroral. The protocol:
as §1

As for `CC(C#N)(COc1ccc(C#N)cc1Cl)NC(=O)c1ccc(C(F)(F)F)cc1` (stereo not drawn) [No. 1.1, N-[1-cyano-1-methyl-2-(4-cyano-2-chlorophenoxy)-ethyl]-4-trifluoromethylbenzamide], the melting point – broadly, the temperature, or range, at which the solid turns liquid – lay in the range of 147 to 149 °C. Further, the inhibition in vivo at 1 mg/kg in data set [1] was 87%. The inhibition in vivo at 1 mg/kg with Haemonchus contortus turned out to be 97%.

Consider `CC(C#N)(COc1ccc(C#N)cc1C(F)(F)F)NC(=O)c1ccc(C(F)(F)F)cc1` (stereo not drawn) [No. 1.3, N-[1-cyano-1-methyl-2-(4-cyano-2-trifluoromethylphenoxy)-ethyl]-4-trifluoromethyl-benzamide], for which the melting point is 184 to 186 °C. In addition, the inhibition in vivo at 1 mg/kg in data set [1] amounted to 91%. Also, the inhibition in vivo at 1 mg/kg with Haemonchus contortus is 97%.

With `CC(C#N)(COc1cc(C#N)ccc1Cl)NC(=O)c1ccc(C(F)(F)F)cc1` (stereo not drawn) [No. 1.4, N-[1-cyano-1-methyl-2-(5-cyano-2-chlorophenoxy)-ethyl]-4-trifluoromethylbenzamide], the melting point lay within 147 to 149 °C. Moreover, the inhibition in vivo at 1 mg/kg in the data set on Haemonchus contortus was 82%.

`CC(C#N)(COc1cc(C#N)ccc1C(F)(F)F)NC(=O)c1ccc(C(F)(F)F)cc1` (stereo not drawn) [No. 1.6, N-[1-cyano-1-methyl-2-(5-cyano-2-trifluoromethylphenoxy)-ethyl]-4-trifluoromethyl-benzamide] had a melting point of 154 °C. Moreover, the inhibition in vivo at 1 mg/kg in data set [1] was determined as 87%. The inhibition in vivo at 1 mg/kg with Haemonchus contortus was determined as 97%.

For `CC(C#N)(COc1ccccc1Cl)NC(=O)c1ccc(C(F)(F)F)cc1` (stereo not drawn) [No. 1.12, reference compound], the inhibition in vivo at 10 mg/kg in data set [1] was 98%; with Haemonchus contortus, 82%.

As to `CC(C#N)(COc1ccc(Cl)cc1Cl)NC(=O)c1ccc(C(F)(F)F)cc1` (stereo not drawn) [No. 1.60, reference compound], the figures for the inhibition in vivo at 3.2 mg/kg (in data set [1]; with Haemonchus contortus) were 31% and 29%, respectively.

Turning to `CC(C#N)(COc1ccccc1C(F)(F)F)NC(=O)c1ccc(OC(F)(F)F)cc1` (stereo not drawn) [No. 1.64, reference compound], the inhibition in vivo at 1 mg/kg in data set [1] came to 55%; in the data set with Haemonchus contortus, 28%.

On to `CC(C#N)(COc1cc(Cl)ccc1Cl)NC(=O)c1ccc(C(F)(F)F)cc1` (stereo not drawn) [No. 1.72, reference compound], for which the inhibition in vivo at 10 mg/kg in the data set with Haemonchus contortus is 66%.

Take `CC(C#N)(COc1cc(Cl)ccc1Cl)NC(=O)c1ccc(OC(F)(F)F)cc1` (stereo not drawn) [No. 1.124, reference compound]: the inhibition in vivo at 10 mg/kg amounted to 99% in data set [1] and 84% in the data set on Haemonchus contortus.

`CC(C#N)(COc1ccccc1C(F)(F)F)NC(=O)c1ccc(C(F)(F)F)cc1` (stereo not drawn) [No. 1.264, reference compound]: the values for the inhibition in vivo at 3.2 mg/kg (in data set [1]; with Haemonchus contortus) were 76% and 57%, respectively.

For the compound `CC(C#N)(COc1ccc(C#N)cc1Cl)NC(=O)c1ccc(OC(F)(F)F)cc1` (stereo not drawn) [No. 2.1, N-[1-cyano-1-methyl-2-(4-cyano-2-chlorophenoxy)-ethyl]-4-trifluoromethoxybenzamide], the melting point lay in the range of 60 to 62 °C. In data set [1], the inhibition in vivo at 3.2 mg/kg was found to be 100%. The inhibition in vivo at 3.2 mg/kg in the data set on Haemonchus contortus worked out at 100%.

For the compound `CC(C#N)(COc1ccc(C#N)cc1C(F)(F)F)NC(=O)c1ccc(OC(F)(F)F)cc1` (stereo not drawn) [No. 2.3, N-[1-cyano-1-methyl-2-(4-cyano-2-trifluoromethylphenoxy)-ethyl]-4-trifluoromethoxy-benzamide], the melting point lay within 80 to 82 °C.

`CC(C#N)(COc1cc(C#N)ccc1Cl)NC(=O)c1ccc(OC(F)(F)F)cc1` (stereo not drawn) [No. 2.4, N-[1-cyano-1-methyl-2-(5-cyano-2-chlorophenoxy)-ethyl]-4-trifluoromethoxybenzamide] registered a melting point of 132 to 134 °C. Besides, in data set [1], the inhibition in vivo at 1 mg/kg came to 79%. Moreover, in the data set with Haemonchus contortus, the inhibition in vivo at 1 mg/kg amounted to 89%.

With `CC(C#N)(COc1cc(C#N)ccc1C(F)(F)F)NC(=O)c1ccc(OC(F)(F)F)cc1` (stereo not drawn) [No. 2.6, N-[1-cyano-1-methyl-2-(5-cyano-2-trifluoromethylphenoxy)-ethyl]-4-trifluoromethoxybenzamide], the inhibition in vivo at 1 mg/kg in data set [1] came to 85%; with Haemonchus contortus, 95%.

Regarding `CC(C#N)(COc1ccccc1C(F)(F)F)NC(=O)c1ccc(SC(F)(F)F)cc1` (stereo not drawn) [No. 2.14, reference compound], the values for the inhibition in vivo at 3.2 mg/kg (in data set [1]; in the data set with Haemonchus contortus) were 73% and 61%, respectively.

Consider `CC(C#N)(COc1ccccc1C(F)(F)F)NC(=O)c1ccc(C(F)(F)F)cc1F` (stereo not drawn) [No. 2.19, reference compound], for which the inhibition in vivo at 10 mg/kg in data set [1] was determined as 0%; with Haemonchus contortus, 25%.

Take `CC(C#N)(COc1ccc(C#N)cc1Cl)NC(=O)c1ccc(SC(F)(F)F)cc1` (stereo not drawn) [No. 3.1, N-[1-cyano-1-methyl-2-(4-cyano-2-chlorophenoxy)-ethyl]-4-trifluoromethylsulfanylbenzamide]: the melting point was 167 to 169 °C. Moreover, the inhibition in vivo at 1 mg/kg in data set [1] came out at 93%. The inhibition in vivo at 1 mg/kg in the data set with Haemonchus contortus is 69%.

Turning to `CC(C#N)(COc1ccc(C#N)cc1C(F)(F)F)NC(=O)c1ccc(SC(F)(F)F)cc1` (stereo not drawn) [No. 3.7, N-[1-cyano-1-methyl-2-(4-cyano-2-trifluoromethylphenoxy)-ethyl]-4-trifluoromethylsulfanyl-benzamide], the melting point is 79 to 82 °C. Besides, in data set [1], the inhibition in vivo at 1 mg/kg was 98%. The inhibition in vivo at 1 mg/kg with Haemonchus contortus was 90%.

`CC(C#N)(COc1ccc(C#N)cc1C(F)(F)F)NC(=O)c1ccc([S+]([O-])C(F)(F)F)cc1` (stereo not drawn) [No. 3.8, N-[1-cyano-1-methyl-2-(4-cyano-2-trifluoromethylphenoxy)-ethyl]-4-trifluoromethylsulfinyl-benzamide]: the results for the inhibition in vivo at 1 mg/kg (in data set [1]; in the data set with Haemonchus contortus) were 85% and 74%, respectively.

In the case of `CC(C#N)(COc1ccc(C#N)cc1C(F)(F)F)NC(=O)c1ccc(S(=O)(=O)C(F)(F)F)cc1` (stereo not drawn) [No. 3.9, N-[1-cyano-1-methyl-2-(4-cyano-2-trifluoromethylphenoxy)-ethyl]-4-trifluoromethylsulfonyl-benzamide], the inhibition in vivo at 1 mg/kg in data set [1] worked out at 87%; in the data set on Haemonchus contortus, 77%.

For the compound `CC(C#N)(COc1cc(C#N)ccc1Cl)NC(=O)c1ccc(SC(F)(F)F)cc1` (stereo not drawn) [No. 3.10, N-[1-cyano-1-methyl-2-(5-cyano-2-chlorophenoxy)-ethyl]-4-trifluoromethylsulfanylbenzamide], the melting point was 125 to 127 °C. For the same compound, the inhibition in vivo at 1 mg/kg in data set [1] worked out at 100%. Also, the inhibition in vivo at 1 mg/kg in the data set with Haemonchus contortus is 100%.

Regarding `CC(C#N)(COc1cc(C#N)ccc1C(F)(F)F)NC(=O)c1ccc(SC(F)(F)F)cc1` (stereo not drawn) [No. 3.16, N-[1-cyano-1-methyl-2-(5-cyano-2-trifluoromethylphenoxy)-ethyl]-4-trifluoromethylsulfanyl-benzamide], the inhibition in vivo at 1 mg/kg (in data set [1]; in the data set with Haemonchus contortus) was 100% throughout.

In the case of `CC(C#N)(COc1cc(C#N)ccc1C(F)(F)F)NC(=O)c1ccc([S+]([O-])C(F)(F)F)cc1` (stereo not drawn) [No. 3.17, N-[1-cyano-1-methyl-2-(5-cyano-2-trifluoromethylphenoxy)-ethyl]-4-trifluoromethylsulfinyl-benzamide], the inhibition in vivo at 1 mg/kg (in data set [1]; in the data set with Haemonchus contortus) was 100% in each case.

Consider `CC(C#N)(COc1cc(C#N)ccc1C(F)(F)F)NC(=O)c1ccc(S(=O)(=O)C(F)(F)F)cc1` (stereo not drawn) [No. 3.18, N-[1-cyano-1-methyl-2-(5-cyano-2-trifluoromethylphenoxy)-ethyl]-4-trifluoromethylsulfonyl-benzamide], for which the inhibition in vivo at 1 mg/kg (in data set [1]; with Haemonchus contortus) was 100% throughout.
